US20240299336A1, “SHELF-STABLE FORMULATIONS OF BENZOYL PEROXIDE AND METHODS OF PRODUCING SAME” (BLUE HILL TECHNOLOGIES LLC, priority 2022, published 2024)

Assays:
Assay type in all cases: physicochemical
[1] = Effect of antioxidants added to FDA-approved benzoyl peroxide drug products on benzene levels; details: antioxidant added to drug product, 50° C. for 2 days
Procedure: (§1) The method USP <467> Residual Solvents Procedure A was modified from flame ionization detection (FID) to mass spectrometry (MS) detection for benzene in benzoyl peroxide products. The gas chromatography (GC) methods were also modified to allow shorter run time and the method was validated for addition of up to 500 mg benzoyl peroxide product or 200 ml glycerol. Identification of benzene was based on the retention time matching to certified reference standards and mass spectral m/z matching to benzene.

[2] = Effect of antioxidants on benzene levels in 10% w/v benzoyl peroxide formulations; details: 10% w/v benzoyl peroxide plus antioxidant
Procedure: For benzoyl peroxide stability studies in glycerol, benzoyl peroxide was prepared in a stock suspension of 20% w/v in glycerol and mixed 1:1 with 20% w/v suspensions or v/v solutions of antioxidants in glycerol. For pH experiments, the same stock suspension of benzoyl peroxide was mixed 1:1 with a 50% glycerol solution with 200 mM buffering agent (Citrate buffer pH 3.0, Tris Buffer pH 7.0, or Tris Buffer pH 9.0) for final 75% glycerol solution. The final volume of all reactions was 100 μL in GC headspace vials with 10% solution benzoyl peroxide (10 mg) and 10% antioxidant or 100 mM buffering agent. Vials were immediately crimp sealed for incubation. For analysis, 4.9 mL of DMSO was added to make up the final volume to approximate 5 mL, crimp sealed, and gently vortexed to mix.
Benzene standard was diluted in DMSO for an 11-point calibration ranging from 10 ng/vial to 100 μg/vial. The coefficient of determination R^2 were greater than 0.999. Five (5) mL of DMSO was used for negative control samples.
as §1, with “benzene. Lower limit of detection (LLOD) was 10 ng (equivalent to 0.02 ppm in hand benzoyl peroxide products) and LLOQ was 25 μg. The measurement uncertainty was determined to be 20%.” for “benzene.”
(§2) 10% w/v benzoyl peroxide formulations were prepared. Various antioxidants were added to the formulations (10% w/v butylated hydroxytoluene (BHT), 10% w/v vitamin E acetate, or 5% w/v tert-butyl hydroquinone (TBHQ)+5% w/v BHT) to test whether these antioxidants could prevent or reduce formation of benzene under certain conditions. The various formulations were incubated at either 37° C., for up to two weeks or at 50° C., for up to two weeks. Benzene levels in each formulation were tested at various time points according to the protocols described in Example 1.

[3] = Effect of solvents on benzene levels in 10% w/v benzoyl peroxide formulations; details: 10% benzoyl peroxide, 37° C. for 10 days, compared to formulations containing glycerol or NMP
Procedure: as §1
as §2, with “solvents” for “antioxidants”, “(water, dimethylsulfoxide (DMSO), glycerol. N-methyl-2-pyrrolidone (NMP))” for “(10% w/v butylated hydroxytoluene (BHT), 10% w/v vitamin E acetate, or 5% w/v tert-butyl hydroquinone (TBHQ)+5% w/v BHT)”

[4] = Benzene levels formed by crystalline benzoyl peroxide incubated at 50° C.; details: 50° C. for up to 12 days
Procedure: as §1

Row | levels of benzene formed in the formulations ([2]; 37° C. for up to two weeks) | levels of benzene formed in the formulations ([2]; 50° C. for up to two weeks) | Compound | levels of benzene formed in two FDA-approved drug products with antioxidant [1] | levels of benzene formed in the formulations [3] | other results
1 | most dramatic reduction | most dramatic reduction | Cc1cc(C(C)(C)C)c(O)c(C(C)(C)C)c1 [BHT, butylated hydroxytoluene] | reduce the degradation of benzoyl peroxide to benzene | – | –
2 | – | – | C[S+](C)[O-] [DMSO, dimethylsulfoxide] | – | most dramatic reduction in, or complete prevention of, benzene levels | –
3 | – | – | CC(C)(C)c1cc(O)ccc1O [TBHQ, tert-butyl hydroquinone] | reduce the degradation of benzoyl peroxide to benzene | – | –
4 | – | – | O=C(OOC(=O)c1ccccc1)c1ccccc1 [crystalline benzoyl peroxide, benzoyl peroxide] | – | – | levels of benzene formed [4]: may be protected from forming benzene levels
5 | reduced the levels of benzene | reduced the levels of benzene | CC(=O)Oc1c(C)c(C)c2c(c1C)CCC(C)(CCC[C@H](C)CCC[C@H](C)CCCC(C)C)O2 (stereo partly drawn) [vitamin E acetate] | – | – | –
6 | – | – | O [water] | – | most dramatic reduction in, or complete prevention of, benzene levels | –
